# According to patent publication US12448388B2, “PRMT5 inhibitors and uses thereof” (Gilead Sciences, Inc., priority 2023, dated 2025):
# Like-named read-outs stand apart in the source and are kept apart here.
# System: HCT116 MTAP-deleted cell lines
# Assay: Cell viability assay (CellTiter-Glo, 7 days), HCT116 MTAP-deleted
# Assay type: cell-based
# Settings: Homo sapiens, HCT-116, HCT116 MTAP-deleted, class symbols, read-out: CC50
# Summary of the method: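 Luminescent ATP readout (CellTiter-Glo) after 7 days of continuous compound exposure gives the CC50 value. Cells were plated onto pre-dispensed DMSO dilution series of the PRMT5 inhibitors and kept at 37 °C in 5% CO2.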
SMILES,CC50 (cell viability assay),CC50 (cell viability)
"Cc1ncc2c(N)nc3cnc(C(=O)N4C[C@@H](F)C[C@@H]5Oc6cc(C(F)(F)F)ccc6[C@@H]54)cc3n12 [Ff-656, (4-amino-1-methylimidazo[1,5-a]pyrido[3,4-e]pyrazin-8-yl)((3S,4aS,9bS)-3-fluoro-7-(trifluoromethyl)-3,4,4a,9b-tetrahydrobenzofuro[3,2-b]pyridin-1(2H)-yl)methanone]",< 100 nM,–
"Nc1nc2cc(F)c(C(=O)N(Cc3ccc(C(F)(F)F)cn3)C34COC(C3)C4)cc2n2cncc12 [Ff-268, 4-amino-N-(2-oxabicyclo[2.1.1]hexan-4-yl)-7-fluoro-N-((5-(trifluoromethyl)pyridin-2-yl)methyl)imidazo[1,5-a]quinoxaline-8-carboxamide]",–,< 100 nM
"CC(C)N(Cc1ccc(F)cc1Cl)C(=O)c1ccc2nc(N)c3cncn3c2c1 [Ff-72, 4-amino-N-(2-chloro-4-fluorobenzyl)-N-isopropylimidazo[1,5-a]quinoxaline-8-carboxamide]",–,100 to 1000 nM
CN(C(=O)c1cc2c(cc1F)nc(N)c1cncn12)[C@@H]1COc2cc(OC(F)F)c(F)cc21 [Ff-584],< 100 nM,–
Cc1ncn2c1c(N)nc1cc(F)c(C(=O)N3CCOC[C@@H]3c3ccc(C(F)(F)F)cc3)cc12 [Ff-137],–,< 100 nM
"CC(C)N(Cc1ccc(-c2cnn(-c3cccnc3)c2)cc1F)C(=O)c1cc2c(cc1F)nc(N)c1cncn12 [Ff-148, 4-amino-7-fluoro-N-(2-fluoro-4-(1-(pyridin-3-yl)-1H-pyrazol-4-yl)benzyl)-N-isopropylimidazo[1,5-a]quinoxaline-8-carboxamide]",–,< 100 nM
"CN(C(=O)c1cc2c(cc1F)nc(N)c1cncn12)[C@@H]1COc2cc(-c3cnn(C)c3)ccc21 [Ff-214, (S)-4-amino-7-fluoro-N-methyl-N-(6-(1-methyl-1H-pyrazol-4-yl)-2,3-dihydrobenzofuran-3-yl)imidazo[1,5-a]quinoxaline-8-carboxamide]",–,< 100 nM
"CN(C(=O)c1ccc2nc(N)c3cncn3c2c1)C1CCc2nc(Cl)sc21 (stereo not shown) [Ff-15, 4-amino-N-(2-chloro-5,6-dihydro-4H-cyclopenta[d]thiazol-6-yl)-N-methylimidazo[1,5-a]quinoxaline-8-carboxamide]",–,> 1000 nM
"Nc1nc2cc(F)c(C(=O)N(Cc3ccc(-c4cnn(C(F)(F)F)c4)cn3)C34CC(C3)C4)cc2n2cncc12 [Ff-211, 4-amino-N-(bicyclo[1.1.1]pentan-1-yl)-7-fluoro-N-((5-(1-(trifluoromethyl)-1H-pyrazol-4-yl)pyridin-2-yl)methyl)imidazo[1,5-a]quinoxaline-8-carboxamide]",–,< 100 nM
"Nc1nc2cc(Cl)c(C(=O)N3CC[C@H]4C[C@@H]3c3ccc(C(F)(F)F)nc34)cc2n2cncc12 (racemic) [Ff-91, Rac-(4-amino-7-chloroimidazo[1,5-a]quinoxalin-8-yl)((5R,9S)-2-(trifluoromethyl)-5,7,8,9-tetrahydro-6H-5,9-methanopyrido[3,2-c]azepin-6-yl)methanone]",–,< 100 nM
"Nc1nc2cc(F)c(C(=O)N3CCC[C@@H]4OCc5cc(-c6ccn(C(F)F)n6)ccc5[C@@H]43)cc2n2cncc12 (racemic) [Ff-298, Rac-(4-amino-7-fluoroimidazo[1,5-a]quinoxalin-8-yl)((4aS,10bS)-8-(1-(difluoromethyl)-1H-pyrazol-3-yl)-2,3,4,4a,6,10b-hexahydro-1H-isochromeno[4,3-b]pyridin-1-yl)methanone]",–,< 100 nM
"CN(C(=O)c1cc2c(cc1F)nc(N)c1cncn12)[C@@H]1COc2cc(C(F)(F)F)cc(F)c21 (single isomer, unassigned) [Ff-601]",< 100 nM,–
"Cc1ncn2c1c(N)nc1cnc(C(=O)N3C[C@@H](C)C[C@@H]4Oc5cc(C(F)(F)F)ccc5[C@@H]43)cc12 [Fg-37, (4-amino-3-methylimidazo[1,5-a]pyrido[3,4-e]pyrazin-8-yl)((3S,4aS,9bS)-3-methyl-7-(trifluoromethyl)-3,4,4a,9b-tetrahydrobenzofuro[3,2-b]pyridin-1(2H)-yl)methanone]",< 100 nM,–
